Laboratory results published in patent publication US12496284B2, “Use of itaconate and its derivatives/analogues to induce hair growth” (The Johns Hopkins University, priority 2019, dated 2025).
“Also recorded” adds a separate entry of the source.

Tests used:
TLR3/IL6/STAT3 axis = assay: Treatment of human keratinocytes (NHEKs) with itaconate prodrugs, poly(I:C) challenge, qRT-PCR; type: cell-based; settings: NHEKs pre-treated 2 days, then poly(I:C) for 24 hours, mRNA by qRT-PCR, FIG. 4, FIG. 6
Experimental: Neonatal human epidermal keratinocytes (NHEKs) isolates from neonatal foreskin were seeded at a density of 100,000 cells per well and were maintained in KGM supplemented with growth factors (KGM-GOLD Bullet kit, #192060). Prodrugs were reconstituted in DMSO. NHEKs were pre-treated with either vehicle (0.1% DMSO) or prodrug. After 2 days, NHEKs were treated with […] poly(I:C) for 24 hours.
Total RNA was isolated and purified from cultured NHEKs using the RNeasy Mini Kit (Qiagen, Valencia, CA, #74106). After assessing RNA purity and concentrations using a NanoDrop 2000 UV-Vis spectrophotometer, RNA was converted to cDNA using a reverse-transcription kit and random hexamer primers (Applied Biosystems, #4368814). mRNA expression was determined by qRT-PCR using gene-specific, fluorophore-based TaqMan probes and universal master mix (Applied Biosystems, #4366072). The qRT-PCR reactions were multiplexed using target and reference gene (RPLPO) probes. Relative mRNA fold changes were then quantified using the […] method.
Next, whether itaconate derivatives, such as itaconate prodrugs, have this same capacity was tested. To screen for compounds, those that behaved in vitro with similar properties to itaconate were evaluated. First, the molecular effect of dimethyl itaconate (DI) to blunt dsRNA (PIC; Polyinosinic:polycytidylic acid) effect at increasing TLR3, IL-6, and STAT3 expression was tested.
Next, the ability of synthesized itaconate prodrugs to behave similarly in the in vitro assay was tested. […] Methods are as above, but substituting the […].

C57BL6/J mice = assay: Hair growth (telogen to anagen transition) after topical treatment of shaved mice; type: in vivo; settings: for hair growth compared with JAK inhibitors: 3% each diluted in DMSO, topical, FIG. 9
Experimental: All adult wild-type (C57BL6/J) mice were approximate 8.5 weeks old and obtained from Jackson Labs (#00664). All animals were maintained in an AAALAC (Accreditation of Laboratory Animal Care International)—approved facility at Johns Hopkins University. All experimental procedures were approved by the Institutional Animal Care and Use Committee at Johns Hopkins under the protocol #MO17M298.
(§1) Adult C57BL6/J mice were treated during the refractory period of hair dormancy (telogen) to allow for hair growth (anagen) re-initiation. To determine the anagen re-entry, mice were grossly observed for skin thickening and darkening. Mice were shaved on their dorsal side and the left half the skin was topically treated with either vehicle (DMSO) or prodrug (20% IS-100-142 (compound 5)) with the right side untreated. The treatment regimen was once every other day for a total of two treatment cycles.
In one aspect, the presently disclosed subject matter is directed to compounds that might be able to enhance hair growth. To this end, the ability of dimethyl itaconate to induce the transition from the resting phase of the hair cycle, telogen, to the growing phase of the hair cycle, anagen, in wild type mice was tested.
Finally, the ability of compound 5 to also induce hair growth as observed for DI was tested. […] Here mice were treated as above, except the left side was treated with either compound 5 or DMSO and the right side was left untreated. The small amount of hair growth in the DMSO treated mouse was from the natural anagen cycle beginning.
as §1, with “All adult wild-type (C57BL6/J) mice were approximate 8.5 weeks old and obtained from Jackson Labs. Animals were fed standard mouse diet. […] Adult” for “Adult”, “right” for “left”, “dimethyl itaconate (20%) or with 1% compound 5, 2% compound 5 or 5% compound 5” for “prodrug (20% IS-100-142 (compound 5))”, “left” for “right”, “or three treatments with similar results.” for “treatment cycles.”

[1] = Mouse skin penetration in Alopecia model; type: in vivo; settings: dose 5% w/v
Excerpt: Referring now to FIG. 12, mouse skin penetration in an Alopecia model for IS-100-142 (compound 5) (left panel) and monomethyl itaconate (right panel) is shown.

| SMILES | inhibition of dsRNA (poly(I:C)) effect at increasing TLR3, IL-6 and STAT3 expression (downstream gene targets TLR3, IL6, STAT3, WNT7B) (TLR3/IL6/STAT3 axis) | inhibition of dsRNA (poly(I:C)) effect at increasing TLR3, IL-6 and STAT3 expression (downstream gene targets TLR3, IL6, STAT3, WNT7B) (TLR3/IL6/STAT3 axis; listed as DI) | transition from telogen (resting phase) to anagen (growing phase) of the hair cycle (C57BL6/J mice; 20% dimethyl itaconate, wild type mice, FIG. 5) | inhibition of dsRNA (poly(I:C)) effect at increasing TLR3, IL-6 and STAT3 expression (downstream gene targets TLR3, IL6, STAT3, WNT7B) (TLR3/IL6/STAT3 axis; listed as IS-100-142) | transition of hair follicle from telogen to anagen (hair growth) (C57BL6/J mice; 1%, 2% or 5% compound 5 topical on right half of skin, once every other day, two or three treatments, FIG. 8) | hair growth compared with JAK inhibitors (C57BL6/J mice) | hair growth (C57BL6/J mice; 20% compound 5 in DMSO, topical on left half of shaved dorsal skin, once every other day, two treatment cycles, FIG. 7) | intact prodrug levels, skin versus plasma ([1]; topical application in DMSO, FIG. 12 left panel) | monomethyl itaconate levels, skin versus plasma ([1]; topical application of IS-100-142 in DMSO, FIG. 12 right panel) |
| --- | --- | --- | --- | --- | --- | --- | --- | --- | --- |
| C=C(CC(=O)OC)C(=O)OC [dimethyl itaconate, reference compound] | blunt dsRNA | potently inhibits those markers | potently induced this transition; also recorded: induces the transition | – | – | – | – | – | – |
| C=C(CC(=O)OC)C(=O)OCOC(=O)OC(C)C [Compound 5] | potently inhibited the same dsRNA response as DI | – | – | inhibits JAK-STAT signaling most effectively | promote transition of hair follicle from telogen (quiescence phase) to anagen (growing phase); also recorded: induces hair growth | comparable levels as Ruxolitinib and Tofacitinib | induces hair growth | higher in skin versus plasma | higher in skin versus plasma |
| C[C@@H]1CCN(C(=O)CC#N)C[C@@H]1N(C)c1ncnc2[nH]ccc12 [Tofacitinib, reference compound] | – | – | – | – | – | comparable levels | – | – | – |
